One molecule from patent US20230116972A1, “CD38 MODULATORS AND METHODS OF USE THEREOF” (Cytokinetics, Inc., priority 2021, published 2023) can be followed below.

Structures are written as SMILES.

By IC50 is commonly meant the concentration at which inhibition is half-maximal. Read a low IC50 as greater potency.

The target in this data set is T1, CYP2C8 (Homo sapiens, UniProt P10632).
T1 construct: Pooled human microsomes and selective CYP probe substrates were used; from tissue; host or cells: pooled human (hepatic) microsomes
T1 sequence (P10632 1-490): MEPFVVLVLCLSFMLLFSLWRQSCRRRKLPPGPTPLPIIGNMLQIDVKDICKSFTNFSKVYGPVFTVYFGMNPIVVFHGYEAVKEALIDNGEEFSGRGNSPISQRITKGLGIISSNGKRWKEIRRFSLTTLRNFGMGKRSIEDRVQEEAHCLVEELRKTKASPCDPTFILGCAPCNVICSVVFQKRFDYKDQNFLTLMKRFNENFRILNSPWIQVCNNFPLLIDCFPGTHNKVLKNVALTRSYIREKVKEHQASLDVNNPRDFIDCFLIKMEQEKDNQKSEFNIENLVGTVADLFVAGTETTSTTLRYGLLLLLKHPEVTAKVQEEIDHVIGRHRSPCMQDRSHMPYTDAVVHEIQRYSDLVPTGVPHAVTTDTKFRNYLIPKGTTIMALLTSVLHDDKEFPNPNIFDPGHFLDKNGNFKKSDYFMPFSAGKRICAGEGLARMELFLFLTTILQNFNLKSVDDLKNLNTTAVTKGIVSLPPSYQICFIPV
Put plainly: time dependent inhibition of CYP450 in pooled human microsomes. The data set is classed as in vitro ADME. Here is the method:
Time dependent inhibition: An assessment of the time-dependent Inhibitory potential of test compounds against the principal human cytochrome P450 isozymes was carried out using standard methods (Grimm et al, “The Conduct of in Vitro Studies to Address Time-Dependent Inhibition of Drug-Metabolizing Enzymes: A Perspective of the Pharmaceutical Research and Manufacturers of America”, Drug Metabolism and Disposition, 37 (7): 1355, 2009). […] Each compound was pre-incubated at 37° C. plus and minus NADPH for 30 min, and with 0 min pre-incubation for assessment of potential time dependent inhibition. LC-MS/MS was used to quantify metabolite formation. […] Note that, in Tables 8 and 9, the “Compound No” corresponds to the compound numbers in Table 1.

In the case of `CO[C@H]1CC[C@H](NC(=O)c2nccc(-c3cncn3C)n2)CC1` [Compound 148, N-((1r,4r)-4-methoxycyclohexyl)-4-(1-methyl-1H-imidazol-5-yl)pyrimidine-2-carboxamide], the “CYP2C8 IC50 fold shift” value (between 30 min pre-incubation plus NADPH and 0 min) is “none”. Also, the IC50 runs as follows: (pre-incubation 0 min) greater than 30 µM; (pre-incubation 30 min (NADPH)) greater than 30 µM; (pre-incubation 30 min (NO NADPH)) greater than 30 µM.
